Measured values published in patent publication US20080139564A1, “SUBSTITUTED PHENYL PROPYL AMINES AS HISTAMINE H3 RECEPTOR AND SEROTONIN TRANSPORTER MODULATORS” (priority 2006, published 2008).
Like-named read-outs stand apart in the source and are kept apart here.

Experiments:
human H3 receptor [1] = target: T1, human H3 receptor (Homo sapiens, UniProt Q9Y5N1); assay: H3 receptor binding (N-[3H]-α-methylhistamine displacement, SK-N-MC cell membranes); conditions: 0.8 nM N-[3H]-α-methylhistamine, 60 min at 25° C.
T1 construct: expressed in transfected cells
Method: Binding of compounds to the cloned human H3 receptor, stably expressed in SK-N-MC cells, was performed (Lovenberg, T. W. et al. J. Pharmacol. Exp. Ther. 2000, 293, 771-778). Briefly, cell pellets from SK-N-MC cells expressing the human H3 receptor were homogenized in 50 mM Tris-HCl/5 mM EDTA and re-centrifuged at 30,000 g for 30 min. Pellets were re-homogenized in 50 mM Tris/5 mM EDTA (pH 7.4). Membranes were incubated with 0.8 nM N—[^3H]-α-methylhistamine plus/minus test compounds for 60 min at 25° C. and harvested by rapid filtration over GF/C glass fiber filters (pretreated with 0.3% polyethylenimine) followed by four washes with ice-cold buffer. Nonspecific binding was defined in the presence of 10 μM histamine.

Rat SERT = target: T2, Rat SERT (Rattus norvegicus, UniProt P31652); assay: Rat brain SERT binding ([3H]-Citalopram displacement, rat brain membranes); conditions: 0.6 nM [3H]-Citalopram, 60 min at 25° C.
T2 construct: A rat brain without cerebellum (Zivic Laboratories, Inc.—Pittsburgh, Pa.) was homogenized; tissue Zivic Laboratories, Inc; host or cells: rat brain without cerebellum
Method: A rat brain without cerebellum (Zivic Laboratories, Inc.—Pittsburgh, Pa.) was homogenized in a 52.6 mM Tris pH 8/126.4 mM NaCl/5.26 mM KCl mixture and centrifuged at 1,000 rpm for 5 min. The supernatant was removed and re-centrifuged at 15,000 rpm for 30 min. Pellets were re-homogenized in a 52.6 mM Tris pH8/126.4 mM NaCl/5.26 mM KCl mixture. Membranes were incubated with 0.6 nM [^3H]-Citalopram plus/minus test compounds for 60 min at 25° C. and harvested by rapid filtration over GF/C glass fiber filters (pretreated with 0.3% polyethylenimine) followed by four washes with ice-cold buffer. Nonspecific binding was defined in the presence of 100 μM fluoxetine.

human SERT = target: T3, human SERT (Homo sapiens, UniProt P31645); assay: Human SERT binding (3H-citalopram displacement, HEK293 membranes); conditions: 3H-citalopram 3.1 nM, rt for 1 h
T3 construct: expressed in transfected cells; host or cells: HEK293
Method: Homogenized HEK293 (Human Embryonic Kidney) membranes expressing the human SERT were incubated with ^3H-citalopram (SERT) at rt for 1 h in 50 mM Tris, 120 mM NaCl, 5 mM KCl (pH 7.4). Nonspecific binding was determined in the presence of 10 μM fluoxetine for the SERT. The membranes were washed and the radioactivity was counted as above. Calculations for Ki at the SERT were based on a Kd value for ^3H-citalopram and a ligand concentration of 3.1 nM.

human H3 receptor [2] = target: T1, human H3 receptor; assay: Cyclic AMP accumulation (β-galactosidase reporter in SK-N-MC cells); format: cell-based
Method: Sublines of SK-N-MC cells were created that expressed a reporter construct and the human H3 receptor. The reporter gene (β-galactosidase) is under the control of multiple cyclic AMP responsive elements. In 96-well plates, histamine was added directly to the cell media followed 5 min later by an addition of forskolin (5 μM final concentration). When appropriate, antagonists were added 10 min prior to agonist addition. After a 6-h incubation at 37° C., the media was aspirated and the cells washed with 200 μL of phosphate-buffered saline followed by a second aspiration. Cells were lysed with 25 μL 0.1× assay buffer (10 mM Na-phosphate, pH 8, 0.2 mM MgSO4, 0.01 mM MnCl2) and incubated at rt for 10 min. Cells were then incubated for 10 min with 100 μL of 1× assay buffer containing 0.5% Triton and 40 mM β-mercaptoethanol. Color was developed using 25 μL of 1 mg/mL substrate solution (chlorophenolred β-D galactopyranoside; Roche Molecular Biochemicals, Indianapolis, Ind.). Color was quantitated on a microplate reader at absorbance 570 nm. The pA2 values were calculated by Schild regression analysis of the pEC50 values.

[3] = Schild regression analysis of the pEC50 values, histamine agonist, forskolin 5 μM, SK-N-MC reporter cells, read-out: pA2 (converted)

T3 sequence (P31645 whole entry): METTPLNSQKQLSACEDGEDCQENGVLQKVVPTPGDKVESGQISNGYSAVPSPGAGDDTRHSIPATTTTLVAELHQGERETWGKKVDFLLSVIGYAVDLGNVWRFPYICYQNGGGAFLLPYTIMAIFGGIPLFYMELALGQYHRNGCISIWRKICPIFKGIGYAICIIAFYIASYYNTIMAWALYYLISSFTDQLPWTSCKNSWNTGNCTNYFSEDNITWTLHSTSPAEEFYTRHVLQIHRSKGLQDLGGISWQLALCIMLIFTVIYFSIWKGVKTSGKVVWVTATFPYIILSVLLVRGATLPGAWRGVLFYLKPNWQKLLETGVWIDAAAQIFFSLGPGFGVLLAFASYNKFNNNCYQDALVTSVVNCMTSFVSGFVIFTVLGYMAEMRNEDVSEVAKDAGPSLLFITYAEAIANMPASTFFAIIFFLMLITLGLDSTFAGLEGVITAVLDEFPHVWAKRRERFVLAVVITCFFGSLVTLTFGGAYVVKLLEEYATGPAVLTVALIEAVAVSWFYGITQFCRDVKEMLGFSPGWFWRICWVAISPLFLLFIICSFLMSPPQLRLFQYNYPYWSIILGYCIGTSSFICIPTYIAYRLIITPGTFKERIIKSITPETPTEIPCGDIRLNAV
T1 sequence (Q9Y5N1 whole entry): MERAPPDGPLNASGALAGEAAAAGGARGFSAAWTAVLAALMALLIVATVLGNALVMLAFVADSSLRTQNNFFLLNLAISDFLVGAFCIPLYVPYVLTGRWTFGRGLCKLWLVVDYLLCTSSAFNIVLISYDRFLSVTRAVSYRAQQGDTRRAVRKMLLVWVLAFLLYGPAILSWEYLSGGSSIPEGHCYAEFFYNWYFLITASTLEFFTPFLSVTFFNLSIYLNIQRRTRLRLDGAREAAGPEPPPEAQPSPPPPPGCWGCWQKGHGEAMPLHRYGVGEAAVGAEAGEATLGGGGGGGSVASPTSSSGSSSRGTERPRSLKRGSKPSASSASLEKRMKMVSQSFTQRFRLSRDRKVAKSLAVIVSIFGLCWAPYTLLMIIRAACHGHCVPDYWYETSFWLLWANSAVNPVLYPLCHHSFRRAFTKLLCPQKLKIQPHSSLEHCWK
T2 sequence (P31652 whole entry): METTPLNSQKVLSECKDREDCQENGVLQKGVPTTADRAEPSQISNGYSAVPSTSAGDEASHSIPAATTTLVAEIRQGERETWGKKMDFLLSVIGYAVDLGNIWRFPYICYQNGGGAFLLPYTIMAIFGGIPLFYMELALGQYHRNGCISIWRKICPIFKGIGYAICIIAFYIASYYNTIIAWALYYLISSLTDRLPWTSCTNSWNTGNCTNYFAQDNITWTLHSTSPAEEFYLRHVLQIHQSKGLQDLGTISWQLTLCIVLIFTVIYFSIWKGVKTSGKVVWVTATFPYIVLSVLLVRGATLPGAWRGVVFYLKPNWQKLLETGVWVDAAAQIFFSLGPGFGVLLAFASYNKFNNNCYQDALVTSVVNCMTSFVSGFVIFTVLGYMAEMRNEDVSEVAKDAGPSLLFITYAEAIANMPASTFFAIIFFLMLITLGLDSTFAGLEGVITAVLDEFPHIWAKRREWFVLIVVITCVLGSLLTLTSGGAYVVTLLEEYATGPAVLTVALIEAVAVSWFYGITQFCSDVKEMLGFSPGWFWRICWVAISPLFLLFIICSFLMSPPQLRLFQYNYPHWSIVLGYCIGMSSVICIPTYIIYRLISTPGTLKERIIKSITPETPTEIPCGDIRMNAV

SMILES | Ki (human H3 receptor [1]) [nM] | Ki (Rat SERT) [nM] | Ki (human SERT) [nM] | Kb (human H3 receptor [2]; read-out: pA2 (converted)) [nM] | Kb (human H3 receptor [2]; [3]) [nM] | Kb (human H3 receptor [2]) [nM]
CC(C)N1CCC(Oc2ccc(C(CCN(C)C)Oc3ccccc3)cc2)CC1 (stereo not shown) [Example 36, {3-[4-(1-Isopropyl-piperidin-4-yloxy)-phenyl]-3-phenoxy-propyl}-dimethyl-amine] | 0.8 | 36 | 169 | 6.92 | – | –
CN(C)CCC(Oc1ccccc1)c1ccc(CCCCN2CCCCC2)cc1 (stereo not shown) [Example 32, Dimethyl-{3-phenoxy-3-[4-(4-piperidin-1-yl-butyl)-phenyl]-propyl}-amine] | 6 | 7 | 10 | 4.79 | – | –
CC(C)N1CCN(C(=O)c2ccc(C(CCN(C)C)Oc3ccccc3)cc2)CC1 (stereo not shown) [Example 38, [4-(3-Dimethylamino-1-phenoxy-propyl)-phenyl]-(4-isopropylpiperazin-1-yl)-methanone] | 0.7 | 161 | 245 | 0.214 | – | –
CN(C)CCC(Oc1ccc(C(F)(F)F)cc1)c1ccc(OCCCN2CCCCC2)cc1 (stereo not shown) [Example 2, Dimethyl-[3-[4-(3-piperidin-1-yl-propoxy)-phenyl]-3-(4-trifluoromethyl-phenoxy)-propyl]-amine] | 2.5 | 17 | 14 | – | 2.95 | –
CN(C)CCC(Oc1cccc(Br)c1)c1ccc(OCCCN2CCCCC2)cc1 (stereo not shown) [Example 15, {3-(3-Bromo-phenoxy)-3-[4-(3-piperidin-1-yl-propoxy)-phenyl]-propyl}-dimethyl-amine] | 1 | 2 | 4 | – | 1.58 | –
CNCCC(Oc1ccc(C(F)(F)F)cc1)c1ccc(OCCCN2CCCCC2)cc1 (stereo not shown) [Example 70, Methyl-[3-[4-(3-piperidin-1-yl-propoxy)-phenyl]-3-(4-trifluoromethyl-phenoxy)-propyl]-amine] | 1 | 3 | 2 | – | – | 3.98

Second part, led by results:

Ki (human H3 receptor [1]) [nM] | Ki (Rat SERT) [nM] | Ki (human SERT) [nM] | Kb (human H3 receptor [2]; read-out: pA2 (converted)) [nM] | Kb (human H3 receptor [2]; [3]) [nM] | SMILES | Kb (human H3 receptor [2]) [nM]
0.8 | 1 | 14 | 0.251 | – | CN(C)CCC(Cc1ccccc1)c1ccc(OCCCN2CCCCC2)cc1 (stereo not shown) [Example 65, Dimethyl-{4-phenyl-3-[4-(3-piperidin-1-yl-propoxy)-phenyl]-butyl}-amine] | –
3 | 15 | 151 | 3.98 | – | CN(C)CCC(Nc1ccccc1)c1ccc(OCCCN2CCCCC2)cc1 (stereo not shown) [Example 66, N^3,N^3-Dimethyl-N^1-phenyl-1-[4-(3-piperidin-1-yl-propoxy)-phenyl]-propane-1,3-diamine] | –
8 | 5 | 1 | 7.94 | – | NCCC(Oc1ccc(C(F)(F)F)cc1)c1ccc(OCCCN2CCCCC2)cc1 (stereo not shown) [Example 69, 3-[4-(3-Piperidin-1-yl-propoxy)-phenyl]-3-(4-trifluoromethylphenoxy)-propylamine] | –
2 | 18 | 7 | 2.19 | – | CC(C)N1CCN(C(=O)c2ccc(C(CCN(C)C)Oc3ccc(Cl)c(Cl)c3)cc2)CC1 (stereo not shown) [Example 40, {4-[1-(3,4-Dichloro-phenoxy)-3-dimethylamino-propyl]-phenyl}-(4-isopropyl-piperazin-1-yl)-methanone] | –
1 | 18 | 282 | 0.759 | – | CN(C)CCC(Oc1ccc(OCCCN2CCCCC2)cc1)c1ccccc1 (stereo not shown) [Example 41, Dimethyl-{3-phenyl-3-[4-(3-piperidin-1-yl-propoxy)-phenoxy]-propyl}-amine] | –
2 | 22 | 172 | 2.19 | – | CN(C)CCC(Oc1ccc(C#CCCN2CCCCC2)cc1)c1ccccc1 (stereo not shown) [Example 57, Dimethyl-{3-phenyl-3-[4-(4-piperidin-1-yl-but-1-ynyl)-phenoxy]-propyl}-amine] | –
2 | 9 | 180 | 3.89 | – | CN(C)CCC(Oc1ccc(OCCCN2CCCCC2)cc1)c1ccc(C(F)(F)F)cc1 (stereo not shown) [Example 42, Dimethyl-[3-[4-(3-piperidin-1-yl-propoxy)-phenoxy]-3-(4-trifluoromethyl-phenyl)-propyl]-amine] | –
